What was measured:
[1] = tested on: MCF-7; assay: CellTiter-Glo cell proliferation inhibition, MCF-7 (Effect Example 2); format: cell-based; settings: Homo sapiens, MCF7, 144 h, MCF-7 (CTG), 6 days, starting concentration 10 μM; for inhibition at up to 10 µM: read-out: IH % max (maximum inhibition percentage)
Procedure, shortened: (§1)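 MCF-7, TamR-MCF-7, and CRISPR-edited MCF-7 ER D538G or Y537S cells were seeded at 1,000 or 2,000 cells/well in EMEM and cultured 24 h. They were then exposed to a 4-fold, 10-point series (top 10 µM before addition to wells) for 6 days or 72 h at 37 °C. CellTiter-Glo luminescence gave IC50 and maximum % inhibition.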

[2] = tested on: TamR-MCF-7; assay: CellTiter-Glo cell proliferation inhibition, TamR-MCF-7; format: cell-based; settings: 144 h, TamR-MCF-7 (CTG), 6 days, starting concentration 10 μM; for inhibition at up to 10 µM: read-out: IH % max (maximum inhibition percentage)
Procedure, shortened: as §1

[3] = tested on: MCF-7 ER^D538G; assay: CellTiter-Glo cell proliferation inhibition, MCF-7 ER^D538G; format: cell-based; settings: Homo sapiens, MCF7, 144 h, MCF-7 ER^D538G (CTG), 6 days, starting concentration 10 μM; for inhibition at up to 10 µM: read-out: IH % max (maximum inhibition percentage)
Procedure, shortened: as §1

[4] = tested on: MCF-7 ER^Y537S; assay: CellTiter-Glo cell proliferation inhibition, MCF-7 ER^Y537S; format: cell-based; settings: Homo sapiens, MCF7, 144 h; MCF-7 ER^Y537S (CTG), 6 days, starting concentration 10 μM; read-out: IH % max (maximum inhibition percentage)
Procedure, shortened: as §1

[5] = tested on: MDA-MB-231; assay: CellTiter-Glo cell proliferation inhibition, MDA-MB-231; format: cell-based; settings: Homo sapiens, 144 h, MDA-MB-231 (CTG), 6 days, starting concentration 10 μM; for inhibition at up to 10 µM: read-out: IH % max (maximum inhibition percentage)
Description: 1. Cell line • (1) Breast cancer cell lines and their culture media: • MCF-7 (ATCC; Cat. No.: HTB-22), a Luminal A breast cancer cell; • TamR-MCF-7 (ATCC; Cat. No.: CRL-3435), a breast cancer cell; • MCF-7 ER^D538G: a Luminal A breast cancer cell obtained by constructing MCF-7 (ATCC; Cat. No.: HTB-22) using CRISPR-Cas9 gene editing technology; • MCF-7 ER^Y537S: a Luminal A breast cancer cell obtained by constructing MCF-7 (ATCC; Cat. No.: HTB-22) using CRISPR-Cas9 gene editing technology; • MDA-MB-231: (manufacturer: Nanjing CoBioer Biosciences Co., Ltd.), a triple-negative breast cancer cell; • MDA-MB-468: (manufacturer: Nanjing CoBioer Biosciences Co., Ltd.), a triple-negative breast cancer cell.
Herein, the culture medium of MCF-7, TamR-MCF-7, MCF-7 ER^D538G, and MCF-7 ER^Y537S was EMEM; • the culture medium of MDA-MB-231 and MDA-MB-468 was DMEM.
2. Reagents • Culture medium EMEM (Gibco, 1964507) • Culture medium DMEM (Gibco, 12430-054) • Fetal bovine serum (Gibco, 10091148) • Penicillin-streptomycin double antibody (Gibco, S110JV) • DPBS (Gibco, 14190-144) • CellTiter-Glo® assay kit (Promega, G7573) • Trypsin (0.25%) (Gibco, 25200-056) • DMSO (Sigma, D2650)
3. Instruments • Biosafety cabinet (AIRTECH, BSC-1300A II) • Automated cell counter (Life Technologies, countess II) • Multifunctional microplate reader (Biotek, H1FM) • Orbital shaker (Hangzhou Allsheng Instruments Co., Ltd., OS-100) • XLFIT 5.3 (Inforstack Shanghai Co., Ltd.)
For this test method, the following experiments were performed in a biosafety cabinet, with the specific steps as follows: • (1) Cells were inoculated in a 96-well plate. One day later, the previous culture medium was poured off, 5 mL of DPBS was added to wash the cells, and then DPBS was pipetted and discarded. An appropriate amount of trypsin was then added. The plate was digested in a 37° C., 5% CO2 cell incubator for about 2 to 5 minutes and then taken out. Anew corresponding culture medium was added, and pipetted up and down to resuspend the cells evenly. The cells were then counted using an automated cell counter. • (2) Each cell was inoculated in columns 1 to 11 of a 96-well plate (Corning, Cat. No.: 3610) at a density of 1,000 or 2,000 cells per well in 100 μL of culture medium, and 100 μL of the corresponding culture medium without cells was added to the wells in column 12. The plate was then placed in a 37° C., 5% CO2 incubator for 24 hours. • (3) The compound of the present disclosure and the control drug fulvestrant (Selleck; Cat. No.: S1191) were then 4-fold serially diluted to 10 dose points starting at 10 μM. 10 μL of the serially diluted compound was pipetted and added to 100 μL of cells in columns 1 to 10, and 10 μL of the corresponding culture medium containing 0.33 v % DMSO was added to both columns 11 and 12. The plate was incubated in a 37° C., 5% CO2 incubator for 6 days or 72 hours (Note: column 11 was used as a MAX well with cells but without compound; column 12 was used as a MIN well without cells […]). • (4) The cell viability detection reagent in the CellTiter-Glo® assay kit was then added to the 96-well plate at 50 μL per well according to the instructions, and shaken on an orbital shaker in the dark for 5 to 10 minutes. The cell viability was then measured using a multifunctional microplate reader. Finally, the inhibition of cell proliferation by the compound of the present disclosure was plotted by XLFIT software, and the IC50 value (half inhibitory concentration) and the IH % max (maximum inhibition percentage) of the compound of the present disclosure were calculated.
Compounds D64 to D69 were tested for MDA-MB-231 (CTG) and MDA-MB-468 (CTG) with an incubation time of 72 hours in the incubator.

[6] = tested on: MDA-MB-468; assay: CellTiter-Glo cell proliferation inhibition, MDA-MB-468; format: cell-based; settings: Homo sapiens, 144 h, MDA-MB-468 (CTG), 6 days, starting concentration 10 μM; for inhibition at up to 10 µM: read-out: IH % max (maximum inhibition percentage)
[7] = target: T1, estrogen receptor (Homo sapiens, UniProt P03372); settings: background section; cited from earlier work
T1 sequence (P03372 1-595): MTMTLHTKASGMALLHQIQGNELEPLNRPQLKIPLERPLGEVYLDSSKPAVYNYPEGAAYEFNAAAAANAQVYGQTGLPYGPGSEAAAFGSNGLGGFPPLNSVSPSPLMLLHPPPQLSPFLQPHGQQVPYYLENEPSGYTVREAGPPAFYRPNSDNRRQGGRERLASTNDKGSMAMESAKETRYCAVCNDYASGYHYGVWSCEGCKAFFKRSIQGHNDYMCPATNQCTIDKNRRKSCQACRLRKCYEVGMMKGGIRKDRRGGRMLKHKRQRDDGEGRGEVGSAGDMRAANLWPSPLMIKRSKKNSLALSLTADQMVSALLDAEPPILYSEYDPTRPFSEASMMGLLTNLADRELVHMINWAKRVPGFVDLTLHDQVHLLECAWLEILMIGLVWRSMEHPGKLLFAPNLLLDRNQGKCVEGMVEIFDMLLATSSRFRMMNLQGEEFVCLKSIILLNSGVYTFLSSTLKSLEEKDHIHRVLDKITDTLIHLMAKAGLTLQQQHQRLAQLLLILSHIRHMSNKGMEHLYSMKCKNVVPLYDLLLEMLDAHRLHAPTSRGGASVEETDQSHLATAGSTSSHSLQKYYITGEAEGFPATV

Compound	inhibition at up to 10 µM [1]	inhibition at up to 10 µM [2]	IC50 [3]	inhibition at up to 10 µM [3]	inhibition at up to 10 µM [4]	inhibition at up to 10 µM [5]	inhibition at up to 10 µM [6]	IC50 [1]	IC50 [2]	maximum protein degradation rate [7]	IC50 [5]	IC50 [6]
CCN(CCOCCOCCOc1ccc2c(c1)C(=O)N(C1CCC(=O)NC1=O)C2=O)CCOc1ccc(Oc2c(-c3ccc(S(C)(=O)=O)cc3)ccc3cc(O)ccc23)cc1 (centres unmarked) [Compound D24, 2-(2,6-dioxopiperidin-3-yl)-5-(2-(2-(2-(ethyl(2-(4-((6-hydroxy-2-(4-(methylsulfonyl)phenyl)naphthalen-1-yl)oxy)phenoxy)ethyl)amino)ethoxy)ethoxy)ethoxy)isoindoline-1,3-dione]	74%	60%	448 nM	93%	94%	100%	62%					
CS(=O)(=O)c1ccc(-c2ccc3cc(O)ccc3c2Oc2ccc(OCCNCCCCCNc3cccc4c3C(=O)N(C3CCC(=O)NC3=O)C4=O)cc2)cc1 (centres unmarked) [Compound D60, 2-(2,6-dioxopiperidin-3-yl)-4-((5-((2-(4-((6-hydroxy-2-(4-(methylsulfonyl)phenyl)naphthalen-1-yl)oxy)phenoxy)ethyl)amino)pentyl)amino)isoindoline-1,3-dione]	82%	50%	977 nM	96%	92%	96%	51%	954 nM				
C[C@]12CC[C@@H]3c4ccc(O)cc4C[C@@H](CCCCCCCCC[S+]([O-])CCCC(F)(F)C(F)(F)F)[C@H]3[C@@H]1CC[C@@H]2O (some centres unmarked) [Fulvestrant, fulvestrant, reference compound]	80.7%	71.8%					39.4%	1.6 nM	115 nM	about 61%		
CS(=O)(=O)c1ccc(-c2ccc3cc(O)ccc3c2Oc2ccc(OCCN3CCN(c4ccc5c(c4)C(=O)N(C4CCC(=O)NC4=O)C5=O)CC3)cc2)cc1 (centres unmarked) [Compound D6, 2-(2,6-dioxopiperidin-3-yl)-5-(4-(2-(4-((6-hydroxy-2-(4-(methylsulfonyl)phenyl)naphthalen-1-yl)oxy)phenoxy)ethyl)piperazin-1-yl)isoindoline-1,3-dione]	100%	90%	428 nM	91%	78%	100%	98%	133 nM	331 nM		102 nM	260 nM
